# Measured values as given in patent US20110021505A1, “Use of sulfonyl-substituted 2-sulfonylaminobenzoic acid N-phenylamides in the treatment of pain” (SANOFI-AVENTIS DEUTSCHLAND GMBH, priority 2007, published 2011).
# System: thermal hyperalgesia of the hind paws induced by injection of carrageenan
# Test: Anti-hyperalgesic effect in the carrageenan model of inflammatory triggered thermal hyperalgesia in mice after oral administration
# Assay type: in vivo, male C57B6 mice
# Set-up: key to Statistical evaluation vs. control (AUC1 h-6 h of PWL): ns: not significant; ***: significant, p < 0.0001 (ANOVA & Dunnett)
# Settings: for Mean PWL (paw withdrawal latency) ± SEM: N=6 paws; for Statistical evaluation vs. control (AUC1 h-6 h of PWL): 1-way ANOVA & Dunnett; for AUC1 h-6 h of PWL (mean ± SEM): 1 h to 6 h after carrageenan, N=6
# Protocol: In this in vivo model the anti-hyperalgesic effect was determined in mice in which a thermal hyperalgesia of the hind paws had been induced by injection of carrageenan, by measuring the paw withdrawal latency (PWL), i.e. the time until the mouse withdrew its hind paw from a heated spot of the ground. These experiments and all other animal experiments were performed in accordance with animal protection law and guidelines for the use of experimental animals.
# Three test groups and one control group of animals were used each consisting of three male C57B6 mice. 1 h before injection of carrageenan, either the test compound or vehicle was administered to the animals orally by gavage. In the test groups, mice received 100 μl/10 g body weight of a suspension of the test compound in vehicle MC/T80 comprising 0.1 mg/ml, 0.3 mg/ml or 1 mg/ml (prepared as described in pharmaceutical example A) for attaining a dosage of 1 mg/kg body weight, 3 mg/kg body weight and 10 mg/kg body weight, respectively. In the control group, mice analogously received 100 μl/10 g body weight of vehicle MC/T80. For induction of hind paw inflammatory pain, then in all groups carrageenan (Sigma, Deisenhofen, Germany) at a concentration of 2% in 10 μl of saline was injected into the plantar aspect of both hind paws of the mice under slight general isofluran anesthesia. 1 h before injection of carrageenan, i.e. immediately before administration of the test compound or vehicle, and 1 h, 2 h, 4 h and 6 h after injection of carrageenan, thermal hyperalgesia was determined.
# Thermal hyperalgesia was determined by measuring the paw withdrawal latency (PWL) by means of the automatic plantar test, first described for rats in K. Hargreaves et al., Pain 32 (1988), 77-88, and used in an adapted version fitted to mice described in H. Gühring et al., J. Neurosci. 20 (2000), 6714-6720. To restrict animal movement, 10.5×13.0×4.5 cm test cages were used. Instead of a glass floor, a metal grid bottom was used. PWL (in seconds) was determined on exposure of the paw to a defined thermal stimulus using a commercially available apparatus (Plantar Test, Ugo Basile Biological Research Apparatus, Comerio, Italy) fitted with a mini camera to ensure proper placement of the infrared heat below the hind paw of interest. The timer which measured the duration of reflected infrared light by the hind paw was started by the investigator and stopped once the animal shook the affected paw. A cut-off was set at 16 seconds to prevent tissue damage. For each hind paw and each time point, the mean of three to four PWL measurements was determined.
# The given PWL values (in seconds) are the mean±SEM (standard error of the mean) of the PWL values obtained for each hind paw of each animal (N (number of paws)=6) of the indicated dosage group at the time points 1 h, 2 h, 4 h and 6 h after injection of carrageenan, as well as the baseline PWL values (BL) determined 1 h before administration of the test compound or vehicle and injection of carrageenan.
# For the statistical analysis, PWL values were used in two ways, first with a 2-way ANOVA test based on the PWL values and second with a 1-way ANOVA test based on the area under the curve (AUC) values for the time period of 6 h after injection of carrageenan. A repeated measures 2-way ANOVA test (factor treatment and repeated measures factor time) was performed on PWL measurements. In case the interaction (treatment×time) was statistically significant, a Winer complementary analysis was done to investigate the effect of treatment for each time point. A Dunnett's test was used to study the potential differences between the control group and the test groups. […]
smiles,measurement,setting,value
"O=C(Nc1ccc(S(=O)(=O)N2CCOCC2)cc1)c1cc(Cl)ccc1NS(=O)(=O)c1ccc(Cl)s1.[Na] [Example 94, 5-Chloro-2-(5-chloro-thiophene-2-sulfonylamino)-N-(4-(morpholine-4-sulfonyl)-phenyl)-benzamide sodium salt]",Mean PWL (paw withdrawal latency) ± SEM,"1 mg/kg body weight group, BL baseline before administration and carrageenan",11.08 ± 0.40 s
same,Statistical evaluation vs. control (AUC1 h-6 h of PWL),1 mg/kg body weight oral,ns
same,Mean PWL (paw withdrawal latency) ± SEM,"1 mg/kg body weight oral, 1 h after carrageenan",4.08 ± 0.62 s
same,AUC1 h-6 h of PWL (mean ± SEM),1 mg/kg body weight oral,19.57 ± 2.19
same,Mean PWL (paw withdrawal latency) ± SEM,"1 mg/kg body weight oral, 2 h after carrageenan",3.80 ± 0.28 s
same,Mean PWL (paw withdrawal latency) ± SEM,"1 mg/kg body weight oral, 4 h after carrageenan",3.98 ± 0.79 s
same,Mean PWL (paw withdrawal latency) ± SEM,"1 mg/kg body weight oral, 6 h after carrageenan",3.86 ± 0.48 s
same,"Anti-hyperalgesic effect on PWL vs. control (2-way ANOVA, Dunnett)","3 mg/kg and 10 mg/kg body weight oral, from 1 h to 4 h after carrageenan injection",Statistically significant anti-hyperalgesic effects
same,Mean PWL (paw withdrawal latency) ± SEM,"3 mg/kg body weight group, BL baseline before administration and carrageenan",10.69 ± 0.27 s
same,Statistical evaluation vs. control (AUC1 h-6 h of PWL),3 mg/kg body weight oral,"*** (significant, p < 0.0001 (ANOVA & Dunnett))"
same,Mean PWL (paw withdrawal latency) ± SEM,"3 mg/kg body weight oral, 1 h after carrageenan",8.42 ± 0.53 s
same,AUC1 h-6 h of PWL (mean ± SEM),3 mg/kg body weight oral,44.87 ± 1.21
same,Mean PWL (paw withdrawal latency) ± SEM,"3 mg/kg body weight oral, 2 h after carrageenan",10.16 ± 0.33 s
same,Mean PWL (paw withdrawal latency) ± SEM,"3 mg/kg body weight oral, 4 h after carrageenan",10.84 ± 0.63 s
same,Mean PWL (paw withdrawal latency) ± SEM,"3 mg/kg body weight oral, 6 h after carrageenan",3.74 ± 0.47 s
same,Mean PWL (paw withdrawal latency) ± SEM,"10 mg/kg body weight group, BL baseline before administration and carrageenan",10.97 ± 0.40 s
same,Statistical evaluation vs. control (AUC1 h-6 h of PWL),10 mg/kg body weight oral,"*** (significant, p < 0.0001 (ANOVA & Dunnett))"
same,Mean PWL (paw withdrawal latency) ± SEM,"10 mg/kg body weight oral, 1 h after carrageenan",12.46 ± 0.91 s
same,AUC1 h-6 h of PWL (mean ± SEM),10 mg/kg body weight oral,48.70 ± 2.06
same,Mean PWL (paw withdrawal latency) ± SEM,"10 mg/kg body weight oral, 2 h after carrageenan",11.24 ± 0.77 s
same,Mean PWL (paw withdrawal latency) ± SEM,"10 mg/kg body weight oral, 4 h after carrageenan",11.11 ± 0.54 s
same,Mean PWL (paw withdrawal latency) ± SEM,"10 mg/kg body weight oral, 6 h after carrageenan",3.40 ± 0.46 s
